Assay results: patent US12331046B2, “CTPS1 inhibitors and uses thereof” (Nimbus Clotho, Inc., priority 2020, dated 2025)

Molecular target: human CTPS1 (Homo sapiens (Human), UniProt P17812)
Assay: hCTPS1 biochemical assay (ADP-Glo)
Settings: hCTPS1 25 nM, ATP 120 uM, UTP 160 uM, GTP 60 uM, L-Glutamine 100 uM, 25 degrees C

Sequence of human CTPS1 (P17812 whole entry): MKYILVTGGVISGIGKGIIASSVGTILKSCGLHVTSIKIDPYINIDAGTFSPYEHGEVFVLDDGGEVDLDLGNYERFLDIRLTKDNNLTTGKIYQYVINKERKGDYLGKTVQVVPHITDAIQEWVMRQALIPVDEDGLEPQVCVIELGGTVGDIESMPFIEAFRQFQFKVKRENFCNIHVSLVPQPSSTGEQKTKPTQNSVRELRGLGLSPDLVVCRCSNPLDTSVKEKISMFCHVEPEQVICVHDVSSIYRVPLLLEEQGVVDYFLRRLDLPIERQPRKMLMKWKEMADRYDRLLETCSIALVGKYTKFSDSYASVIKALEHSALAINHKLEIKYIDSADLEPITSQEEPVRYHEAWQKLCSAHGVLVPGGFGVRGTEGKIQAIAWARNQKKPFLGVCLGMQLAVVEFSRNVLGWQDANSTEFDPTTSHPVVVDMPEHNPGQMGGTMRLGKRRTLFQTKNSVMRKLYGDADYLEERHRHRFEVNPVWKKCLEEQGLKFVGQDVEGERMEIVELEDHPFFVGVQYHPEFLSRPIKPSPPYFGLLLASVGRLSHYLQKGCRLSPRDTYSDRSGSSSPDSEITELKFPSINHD

IC50 [nM] | SMILES
< 100 | CC[C@@H](NC(=O)c1ncc(-c2cnn3ccc(Cl)cc23)s1)c1cc(NS(=O)(=O)C2CC2)ccn1 [I-151, (R)-5-(5-chloropyrazolo[1,5-a]pyridin-3-yl)-N-(1-(4-(cyclopropanesulfonamido)pyridin-2-yl)propyl)thiazole-2-carboxamide]
100 to 1000 | CCOc1cncc(-c2ccc3c(c2)C(=O)N(Cc2cc(NS(=O)(=O)C4CC4)ccn2)C3=O)n1 [I-78, N-(2-[[5-(6-ethoxypyrazin-2-yl)-1,3-dioxoisoindol-2-yl]methyl]pyridin-4-yl) cyclopropane Sulfonamide]
100 to 1000 | CCOc1cncc(-c2cnc(C(=O)N[C@@H](CN3CCC3)c3cc(NS(=O)(=O)C4CC4)ccn3)s2)n1 (single isomer, unassigned) [I-221]
< 100 | CCOc1cncc(-c2ccc(C(=O)NCc3cc(NS(=O)(=O)C4CC4)ccn3)c(F)c2)n1 [I-25]
< 100 | CCOc1cncc(-c2ccc(C(=O)NCc3cccc(NS(=O)(=O)C(F)F)c3)cc2)n1 [I-49]
< 100 | CCOc1cncc(-c2cnc(C(=O)NC(CCOC)c3cc(NS(=O)(=O)C4CC4)ccn3)s2)n1 (stereo not shown) [I-186]
< 100 | CCOc1cncc(-c2ccc(C(=O)NC3(c4cccc(NS(=O)(=O)C(F)F)c4)CC3)cc2)n1 [I-266, N-(1-(3-((difluoromethyl)sulfonamido)phenyl)cyclopropyl)-4-(6-ethoxypyrazin-2-yl)benzamide]
< 100 | CCOc1cncc(-c2ccc(C(=O)N[C@@H](CC)c3cc(NS(=O)(=O)C4CC4)ccn3)c(F)c2)n1 [I-73]
< 100 | O=C(NCc1cc(NS(=O)(=O)C2CC2)ccn1)c1ncc(-c2cncc(OCC(F)(F)F)n2)s1 [I-243]
< 100 | CCOc1cncc(-c2cnc(C(=O)N[C@@](C)(CCOC)c3cc(NS(=O)(=O)C4CC4)ccn3)s2)n1 [I-163, (S)—N-(2-(4-(cyclopropanesulfonamido)pyridin-2-yl)-4-methoxybutan-2-yl)-5-(6-ethoxypyrazin-2-yl)thiazole-2-carboxamide]
< 100 | CCOc1cncc(-c2cnc(C(=O)N[C@@H](CN3CCN(C)CC3)c3cc(NS(=O)(=O)C4CC4)ccn3)s2)n1 (single isomer, unassigned) [I-191]
100 to 1000 | O=C(NCc1cc(NS(=O)(=O)C2CC2)ccn1)c1ncc(-c2cnn3ccccc23)s1 [I-237, N-((4-(cyclopropanesulfonamido)pyridin-2-yl)methyl)-5-(pyrazolo[1,5-a]pyridin-3-yl)thiazole-2-carboxamide]

More lines, now with the values behind:

SMILES | IC50 [nM]
CCOc1cncc(-c2cnc(C(=O)N[C@H](CN3CCCC3)c3cc(NS(=O)(=O)C4CC4)ccn3)s2)n1 [I-199, (R)—N-(1-(4-(cyclopropanesulfonamido)pyridin-2-yl)-2-(pyrrolidin-1-yl)ethyl)-5-(6-ethoxypyrazin-2-yl)thiazole-2-carboxamide] | < 100
CCOc1cncc(-c2cnc(C(=O)N3CCNC[C@@H]3c3cc(NS(=O)(=O)C4CC4)ccn3)s2)n1 [I-212, (R)—N-(2-(1-(5-(6-ethoxypyrazin-2-yl)thiazole-2-carbonyl)piperazin-2-yl)pyridin-4-yl)cyclopropanesulfonamide] | < 100
CCOc1cncc(-c2cnc(C(=O)N[C@@H](C[C@H]3CCCCN3C)c3cc(NS(=O)(=O)C4CC4)ccn3)s2)n1 [I-142, N—((S)-1-(4-(cyclopropanesulfonamido)pyridin-2-yl)-2-((R)-1-methylpiperidin-2-yl)ethyl)-5-(6-ethoxypyrazin-2-yl)thiazole-2-carboxamide] | < 100
CCOc1cncc(-c2ccc(C(=O)NC3(c4csc(N(C)S(=O)(=O)C5CC5)n4)CC3)nc2)n1 [I-14, 5-(6-ethoxypyrazin-2-yl)-N-(1-(2-(N-methylcyclopropanesulfonamido)thiazol-4-yl)cyclopropyl)picolinamide] | ≥ 1000
CCOc1cncc(-c2cnc(C(=O)N[C@H](CN3[C@@H]4COC[C@H]3C4)c3cc(NS(=O)(=O)C4CC4)ccn3)s2)n1 [I-115] | < 100
CCn1ncc2ncc(-c3cnc(C(=O)NCc4cc(NS(=O)(=O)C5CC5)ccn4)s3)nc21 [I-149, N-((4-(cyclopropanesulfonamido)pyridin-2-yl)methyl)-5-(1-ethyl-1H-pyrazolo[3,4-b]pyrazin-6-yl)thiazole-2-carboxamide] | ≥ 1000
CCOc1cncc(-c2ccc(C(=O)NCc3cc(NS(=O)(=O)C4CC4)ncn3)nc2)n1 [I-22, N-[(6-cyclopropanesulfonamidopyrimidin-4-yl)methyl]-5-(6-ethoxypyrazin-2-yl) pyridine-2-carboxamide] | < 100
O=C(NC1(c2csc(NS(=O)(=O)C3CC3)n2)CC1)c1ccc2ncccc2c1 [I-9, N-(1-(2-(cyclopropanesulfonamido)thiazol-4-yl)cyclopropyl)quinoline-6-carboxamide] | ≥ 1000
CCC[C@@H]1CCN1c1ncc(C(=O)NCc2cc(NS(=O)(=O)C3CC3)ccn2)nc1C (single isomer, unassigned) [I-58] | 100 to 1000
CCc1ccn2ncc(-c3cnc(C(=O)NCc4cc(NS(=O)(=O)C5CC5)ccn4)s3)cc12 [I-196, N-((4-(cyclopropanesulfonamido)pyridin-2-yl)methyl)-5-(5-ethylpyrrolo[1,2-b]pyridazin-3-yl)thiazole-2-carboxamide] | < 100
CCOc1cncc(-c2cnc(C(=O)N[C@H](CCN3CCCCC3)c3cc(NS(=O)(=O)C4CC4)ccn3)s2)n1 [I-160, (R)—N-(1-(4-(cyclopropanesulfonamido)pyridin-2-yl)-3-(piperidin-1-yl)propyl)-5-(6-ethoxypyrazin-2-yl)thiazole-2-carboxamide] | 100 to 1000
CCOc1cncc(-c2cnc(C(=O)N[C@H](CC3CCN(C)CC3)c3cc(NS(=O)(=O)C4CC4)ccn3)s2)n1 [I-100, (R)—N-(1-(4-(cyclopropanesulfonamido)pyridin-2-yl)-2-(1-methylpiperidin-4-yl)ethyl)-5-(6-ethoxypyrazin-2-yl)thiazole-2-carboxamide] | < 100
CCOc1cncc(-c2ccc(NC(=O)Cc3cc(NS(=O)(=O)C4CC4)ccn3)c(F)c2)n1 [I-39] | < 100
